Literature values, collected in PubChem BioAssay AID1259409 (Chemical Carcinogenesis Research Information System (CCRIS), 2018).

Test system: rodent chemically induced tumor inhibition, incidence and multiplicity
Assay: CCRIS tumor inhibitor studies
Settings: Dose [Inhibitor]: 0, Route [Inhibitor]: ORAL

SMILES: COc1ccc(-c2cc(=O)c3c(O)cc(O[C@@H]4O[C@H](CO[C@@H]5O[C@@H](C)[C@H](O)[C@@H](O)[C@H]5O)[C@@H](O)[C@H](O)[C@H]4O)cc3o2)cc1O
- tumour outcome (control, treated, inhibition, significance) (Carcinogen: 4-NITROQUINOLINE-1-OXIDE, 56-57-5, 1000 PPM IN DIET FOR 10 WK BEGINNING 1 WK PRIOR TO CARCINOGEN TREATMENT (STUDY DURATION: 32 WK), Species: RAT, Strain/Sex: F344/MALE, Target Tissue: Type of Lesion: TONGUE: PAPILLOMA, Dose [Carcinogen]: 20 PPM IN DRINKING WATER FOR 8 WK, Promoter: NONE USED): 8/17 (47%), 1/19 (5%), 89%, p<0.01
- tumour outcome (control, treated, inhibition, significance) (Carcinogen: 4-NITROQUINOLINE-1-OXIDE, 56-57-5, 1000 PPM IN DIET FOR 10 WK BEGINNING 1 WK PRIOR TO CARCINOGEN TREATMENT (STUDY DURATION: 32 WK), Species: RAT, Strain/Sex: R344/MALE, Target Tissue: Type of Lesion: TONGUE: SQUAMOUS CELL CARCINOMA, Dose [Carcinogen]: 20 PPM IN DRINKING WATER FOR 8 WK, Promoter: NONE USED): 11/17 (65%), 4/19 (21%), 68%, p<0.01
- tumour outcome (control, treated, inhibition, significance) (Carcinogen: 4-NITROQUINOLINE-1-OXIDE, 56-57-5, 1000 PPM IN DIET FOR 22 WK BEGINNING 1 WK POST CARCINOGEN TREATMENT (STUDY DURATION: 32 WK), Species: RAT, Strain/Sex: F344/MALE, Target Tissue: Type of Lesion: TONGUE: PAPILLOMA, Dose [Carcinogen]: 20 PPM IN DRINKING WATER FOR 8 WK, Promoter: NONE USED): 8/17 (47%), 2/20 (10%), 79%, p<0.05
- tumour outcome (control, treated, inhibition, significance) (Carcinogen: 4-NITROQUINOLINE-1-OXIDE, 56-57-5, 1000 PPM IN DIET FOR 22 WK BEGINNING 1 WK POST CARCINOGEN TREATMENT (STUDY DURATION: 32 WK), Species: RAT, Strain/Sex: F344/MALE, Target Tissue: Type of Lesion: TONGUE: SQUAMOUS CELL CARCINOMA, Dose [Carcinogen]: 20 PPM IN DRINKING WATER FOR 8 WK, Promoter: NONE USED): 11/17 (65%), 3/20 (15%), 77%, p<0.05
- tumour outcome (control, treated, inhibition, significance) (Carcinogen: AZOXYMETHANE, 25843-45-2, 0.1% IN DIET FOR 4 WK BEGINNING 1 WK PRIOR TO CARCINOGEN TREATMENT (STUDY DURATION: 32 WK), Species: RAT, Strain/Sex: F344/MALE, Target Tissue: Type of Lesion: COLON: ADENOCARCINOMA, Dose [Carcinogen]: 15 MG/KG BW 1/WK FOR 3 WK, Promoter: NONE): 70%, 22%, 69%, p<0.005
- tumour outcome (control, treated, inhibition, significance) (Carcinogen: AZOXYMETHANE, 25843-45-2, 0.1% IN DIET FOR 28 WK BEGINNING 1 WK POST LAST CARCINOGEN DOSE (STUDY DURATION: 32 WK), Species: RAT, Strain/Sex: F344/MALE, Target Tissue: Type of Lesion: COLON: ADENOCARCINOMA, Dose [Carcinogen]: 15 MG/KG BW 1/WK FOR 3 WK, Promoter: NONE): 70%, 5%, 93%, p<0.001
- tumour outcome (control, treated, inhibition, significance) (Carcinogen: AZOXYMETHANE, 25843-45-2, 1000 PPM IN DIET FOR 4 WK BEGINNING 1 WK PRIOR TO CARCINOGEN TREATMENT (STUDY DURATION: 32 WK), Species: RAT, Strain/Sex: F344/MALE, Target Tissue: Type of Lesion: LARGE INTESTINE: TUMOR, Dose [Carcinogen]: 15 MG/KG BW 1/WK FOR 3 WK, Promoter: NONE USED): 12/17 (71%), 5/19 (26%), 63%, p<0.01
- tumour outcome (control, treated, inhibition, significance) (Carcinogen: AZOXYMETHANE, 25843-45-2, 1000 PPM IN DIET FOR 4 WK BEGINNING 1 WK PRIOR TO CARCINOGEN TREATMENT (STUDY DURATION: 32 WK), Species: RAT, Strain/Sex: F344/MALE, Target Tissue: Type of Lesion: SMALL INTESTINE: TUMOR, Dose [Carcinogen]: 15 MG/KG BW 1/WK FOR 3 WK, Promoter: NONE USED): 5/17 (29%), 0/19 (0%), 100%, p<0.05
- tumour outcome (control, treated, inhibition, significance) (Carcinogen: AZOXYMETHANE, 25843-45-2, 1000 PPM IN DIET FOR 28 WK BEGINNING 1 WK POST CARCINOGEN TREATMENT (STUDY DURATION: 32 WK), Species: RAT, Strain/Sex: F344/MALE, Target Tissue: Type of Lesion: LARGE INTESTINE: TUMOR, Dose [Carcinogen]: 15 MG/KG BW 1/WK FOR 3 WK, Promoter: NONE USED): 12/17 (71%), 3/20 (15%), 79%, p<0.001
- tumour outcome (control, treated, inhibition, significance) (Carcinogen: AZOXYMETHANE, 25843-45-2, 1000 PPM IN DIET FOR 28 WK BEGINNING 1 WK POST CARCINOGEN TREATMENT (STUDY DURATION: 32 WK), Species: RAT, Strain/Sex: F344/MALE, Target Tissue: Type of Lesion: SMALL INTESTINE: TUMOR, Dose [Carcinogen]: 15 MG/KG BW 1/WK FOR 3 WK, Promoter: NONE USED): 5/17 (29%), 2/20 (10%), 66%, not significant
- tumour outcome (control, treated, inhibition, significance) (Carcinogen: N-BUTYL-N-(4-HYDROXYBUTYL)NITROSAMINE, 3817-11-6, 1000 PPM IN DIET FOR 8 WK BEGINNING 1 WK PRIOR TO CARCINOGEN TREATMENT (STUDY DURATION: 32 WK), Species: MOUSE, Strain/Sex: ICR/MALE, Target Tissue: Type of Lesion: URINARY BLADDER: PAPILLOMA, Dose [Carcinogen]: 500 PPM IN DRINKING WATER FOR 6 WK, Promoter: NONE USED): 5/26 (19%), 4/24 (17%), 11%, not significant
- tumour outcome (control, treated, inhibition, significance) (Carcinogen: N-BUTYL-N-(4-HYDROXYBUTYL)NITROSAMINE, 3817-11-6, 1000 PPM IN DIET FOR 8 WK BEGINNING 1 WK PRIOR TO CARCINOGEN TREATMENT (STUDY DURATION: 32 WK), Species: MOUSE, Strain/Sex: ICR/MALE, Target Tissue: Type of Lesion: URINARY BLADDER: TRANSITIONAL CELL CARCINOMA, Dose [Carcinogen]: 500 PPM IN DRINKING WATER FOR 6 WK, Promoter: NONE USED): 16/26 (62%), 5/24 (21%), 66%, p<0.005
- tumour outcome (control, treated, inhibition, significance) (Carcinogen: N-BUTYL-N-(4-HYDROXYBUTYL)NITROSAMINE, 3817-11-6, 1000 PPM IN DIET FOR 24 WK BEGINNING 1 WK POST CARCINOGEN TREATMENT (STUDY DURATION: 32 WK), Species: MOUSE, Strain/Sex: ICR/MALE, Target Tissue: Type of Lesion: URINARY BLADDER: PAPILLOMA, Dose [Carcinogen]: 500 PPM IN DRINKING WATER FOR 6 WK, Promoter: NONE USED): 5/26 (19%), 3/24 (13%), 32%, not significant
- tumour outcome (control, treated, inhibition, significance) (Carcinogen: N-BUTYL-N-(4-HYDROXYBUTYL)NITROSAMINE, 3817-11-6, 1000 PPM IN DIET FOR 24 WK BEGINNING 1 WK POST CARCINOGEN TREATMENT (STUDY DURATION: 32 WK), Species: MOUSE, Strain/Sex: ICR/MALE, Target Tissue: Type of Lesion: URINARY BLADDER: TRANSITIONAL CELL CARCINOMA, Dose [Carcinogen]: 500 PPM IN DRINKING WATER FOR 6 WK, Promoter: NONE USED): 16/26 (62%), 2/24 (8%), 87%, p<0.0001
- tumour outcome (control, treated, inhibition, significance) (Carcinogen: N-METHYL-N-AMYLNITROSAMINE, 13256-07-0, 1000 PPM IN DIET FOR 7 WK BEGINNING 1 WK POST CARCINOGEN TREATMENT (STUDY DURATION: 20 WK), Species: RAT, Strain/Sex: WISTAR/MALE, Target Tissue: Type of Lesion: ESOPHAGUS: SQUAMOUS CELL CARCINOMA, Dose [Carcinogen]: 12.5 MG/KG BW 1/WK FOR 12 WK, Promoter: NONE USED): 75%, 39%, 48%, not significant
- tumour outcome (control, treated, inhibition, significance) (Carcinogen: N-METHYL-N-AMYLNITROSAMINE, 13256-07-0, 1000 PPM IN DIET FOR 7 WK BEGINNING 1 WK POST CARCINOGEN TREATMENT (STUDY DURATION: 20 WK), Species: RAT, Strain/Sex: WISTAR/MALE, Target Tissue: Type of Lesion: ESOPHAGUS: SQUAMOUS CELL PAPILLOMA, Dose [Carcinogen]: 12.5 MG/KG BW 1/WK FOR 12 WK, Promoter: NONE USED): 100%, 100%, 0%, not significant
- tumour outcome (control, treated, inhibition, significance) (Carcinogen: N-METHYL-N-AMYLNITROSAMINE, 13256-07-0, 1000 PPM IN DIET FOR 7 WK BEGINNING 1 WK POST CARCINOGEN TREATMENT (STUDY DURATION: 20 WK), Species: RAT, Strain/Sex: WISTAR/MALE, Target Tissue: Type of Lesion: TONGUE: SQUAMOUS CELL CARCINOMA, Dose [Carcinogen]: 12.5 MG/KG BW 1/WK FOR 12 WK, Promoter: NONE USED): 17%, 0%, 100%, not calculated
- tumour outcome (control, treated, inhibition, significance) (Carcinogen: N-METHYL-N-AMYLNITROSAMINE, 13256-07-0, 1000 PPM IN DIET FOR 7 WK BEGINNING 1 WK POST CARCINOGEN TREATMENT (STUDY DURATION: 20 WK), Species: RAT, Strain/Sex: WISTAR/MALE, Target Tissue: Type of Lesion: TONGUE: SQUAMOUS CELL PAPILLOMA, Dose [Carcinogen]: 12.5 MG/KG BW 1/WK FOR 12 WK, Promoter: NONE USED): 33%, 11%, 67%, not calculated
- tumour outcome (control, treated, inhibition, significance) (Carcinogen: N-METHYL-N-AMYLNITROSAMINE, 13256-07-0, 1000 PPM IN DIET FOR 13 WK BEGINNING 1 WK PRIOR TO CARCINOGEN TREATMENT (STUDY DURATION: 20 WK), Species: RAT, Strain/Sex: WISTAR/MALE, Target Tissue: Type of Lesion: ESOPHAGUS: SQUAMOUS CELL CARCINOMA, Dose [Carcinogen]: 12.5 MG/KG BW 1/WK FOR 12 WK, Promoter: NONE USED): 75%, 29%, 61%, p<0.05
- tumour outcome (control, treated, inhibition, significance) (Carcinogen: N-METHYL-N-AMYLNITROSAMINE, 13256-07-0, 1000 PPM IN DIET FOR 13 WK BEGINNING 1 WK PRIOR TO CARCINOGEN TREATMENT (STUDY DURATION: 20 WK), Species: RAT, Strain/Sex: WISTAR/MALE, Target Tissue: Type of Lesion: ESOPHAGUS: SQUAMOUS CELL PAPILLOMA, Dose [Carcinogen]: 12.5 MG/KG BW 1/WK FOR 12 WK, Promoter: NONE USED): 100%, 100%, 0%, not significant
- tumour outcome (control, treated, inhibition, significance) (Carcinogen: N-METHYL-N-AMYLNITROSAMINE, 13256-07-0, 1000 PPM IN DIET FOR 13 WK BEGINNING 1 WK PRIOR TO CARCINOGEN TREATMENT (STUDY DURATION: 20 WK), Species: RAT, Strain/Sex: WISTAR/MALE, Target Tissue: Type of Lesion: TONGUE: SQUAMOUS CELL CARCINOMA, Dose [Carcinogen]: 12.5 MG/KG BW 1/WK FOR 12 WK, Promoter: NONE USED): 17%, 0%, 100%, not calculated
- tumour outcome (control, treated, inhibition, significance) (Carcinogen: N-METHYL-N-AMYLNITROSAMINE, 13256-07-0, 1000 PPM IN DIET FOR 13 WK BEGINNING 1 WK PRIOR TO CARCINOGEN TREATMENT (STUDY DURATION: 20 WK), Species: RAT, Strain/Sex: WISTAR/MALE, Target Tissue: Type of Lesion: TONGUE: SQUAMOUS CELL PAPILLOMA, Dose [Carcinogen]: 12.5 MG/KG BW 1/WK FOR 12 WK, Promoter: NONE USED): 33%, 6%, 82%, not calculated
